Measured values reported in ChEMBL document CHEMBL1201862, “PubChem BioAssay data set” (2004).
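Following 48 hours of exposure in 96-well plates, responses at five concentrations were used to interpolate endpoints linearly. At the GI50, growth is halved.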 Calls of active or inactive are those of the source. Cut-off read from the data, not from the text of the source: active = GI50 up to about 1.1 µM and inactive = higher.

Columns and labels:
Experiment in all cases: NCI tumour cell line growth inhibition, 48 h
786-0 = test system: 786-0
A498 = test system: A498
A549 = test system: A549
ACHN = test system: ACHN
BT-549 = test system: BT-549
CAKI-1 = test system: CAKI-1
CCRF-CEM = test system: CCRF-CEM
COLO 205 = test system: COLO 205
DU-145 = test system: DU-145
EKVX = test system: EKVX
HCC 2998 = test system: HCC 2998
HCT-116 = test system: HCT-116
HCT-15 = test system: HCT-15
HL-60 = test system: HL-60
HOP-62 = test system: HOP-62
HOP-92 = test system: HOP-92
HT-29 = test system: HT-29
Hs-578T = test system: Hs-578T
IGROV-1 = test system: IGROV-1
K562 = test system: K562
KM12 = test system: KM12
LOX IMVI = test system: LOX IMVI
M14 = test system: M14
MCF7 = test system: MCF7
MDA-MB-231 = test system: MDA-MB-231
MDA-MB-435 = test system: MDA-MB-435
MDA-N = test system: MDA-N
MOLT-4 = test system: MOLT-4
Malme-3M = test system: Malme-3M
NCI-H226 = test system: NCI-H226
NCI-H23 = test system: NCI-H23
NCI-H460 = test system: NCI-H460
NCI-H522 = test system: NCI-H522
NCI/ADR-RES = test system: NCI/ADR-RES
OVCAR-3 = test system: OVCAR-3
OVCAR-4 = test system: OVCAR-4
OVCAR-5 = test system: OVCAR-5
OVCAR-8 = test system: OVCAR-8
PC-3 = test system: PC-3
RPMI-8226 = test system: RPMI-8226
RXF 393 = test system: RXF 393
SF-268 = test system: SF-268
SF-295 = test system: SF-295
SF-539 = test system: SF-539
SK-MEL-28 = test system: SK-MEL-28
SK-MEL-2 = test system: SK-MEL-2
SK-MEL-5 = test system: SK-MEL-5
SK-OV-3 = test system: SK-OV-3
SN12C = test system: SN12C
SNB-19 = test system: SNB-19
SNB-75 = test system: SNB-75
SR = test system: SR
SW-620 = test system: SW-620
T47D = test system: T47D
TK-10 = test system: TK-10
U-251 = test system: U-251
UACC-257 = test system: UACC-257
UACC-62 = test system: UACC-62
UO-31 = test system: UO-31

Measured: GI50

COc1ccc(C(=C2C(=O)N(c3ccccc3)C(=O)C2=C(C)C)c2ccc(OC)cc2)cc1
inactive: 786-0 3.43 µM | A498 2.94 µM | A549 5.21 µM | ACHN 4.69 µM | BT-549 12.4 µM | CAKI-1 3.66 µM | COLO 205 2.96 µM | DU-145 6.14 µM | EKVX 2.94 µM | HCC 2998 5.5 µM | HCT-116 3.72 µM | HOP-62 9.02 µM | HOP-92 10.3 µM | HT-29 2.43 µM | Hs-578T 3.69 µM | IGROV-1 3.44 µM | K562 3.27 µM | KM12 3.53 µM | LOX IMVI 3.72 µM | M14 2.4 µM | MCF7 3.44 µM | MDA-MB-231 5.09 µM | MDA-MB-435 1.45 µM | MDA-N 1.7 µM | MOLT-4 2.54 µM | Malme-3M 6.75 µM | NCI-H226 4.56 µM | NCI-H23 > 28 µM | NCI-H460 4.22 µM | NCI-H522 1.5 µM | NCI/ADR-RES 2.57 µM | OVCAR-3 3.56 µM | OVCAR-4 3.23 µM | OVCAR-5 8.69 µM | OVCAR-8 8.41 µM | PC-3 4.33 µM | RPMI-8226 4.1 µM | RXF 393 2.09 µM | SF-268 9.95 µM | SF-295 3.17 µM | SF-539 2.99 µM | SK-MEL-28 3.09 µM | SK-MEL-2 3.97 µM | SK-MEL-5 4.61 µM | SK-OV-3 4.79 µM | SN12C 4.02 µM | SNB-19 4.07 µM | SNB-75 2.87 µM | SW-620 3.19 µM | T47D 3.27 µM | TK-10 14 µM | U-251 3.37 µM | UACC-257 5.05 µM | UACC-62 3.41 µM | UO-31 2.75 µM
active: CCRF-CEM 546 nM | HL-60 998 nM | SR 1.09 µM
2920 nM: HCT-15
